Legend:
Assay type in all cases: in vivo, human
[1] = tested on: Autistic Spectrum Disorder(ASD); test: Treatment of child with Autistic Spectrum Disorder with Aztreonam, then added Vancomycin (case report); conditions: Aztreonam 50 mg 3 times daily; about two weeks after starting
Procedure: A child who was diagnosed with development of Autistic Spectrum Disorder(ASD) with change in bowel habit, withdrawal from ‘society’ and loss of vocabulary/words/vocalizing ability as well as reduced socialisation and eye contact was treated with Aztreonam 50 mg 3 times daily.

ASD = test: Treatment of person with ASD, chronic constipation and abdominal discomfort with oral Vancomycin (case report)
Procedure: A patient was brought by their parent for consultation. They had been suffering from ASD since early childhood but also had chronic constipation and abdominal discomfort. The treatment was focussed on the constipation problem as this was the major component of their complaints when interviewed. They were commenced on to 50 mg Vancomycin twice daily for the first week increasing to 250 mg 3 times daily as an oral dose which is not absorbed. […] However they also noticed a change in behaviour of the child. They were much calmer, with their low vocabulary and inability to complain formally, they were no longer screaming and vocalising their pain using repetitive movements. […] This is both with verbal and non-verbal communication.

OCD = test: Exemplary treatment of OCD in adult with rifaximin (case report)
Procedure: A married office worker had suffered with OCD since childhood. Having been treated with various pharmacologic agents through life their behaviour patterns were largely controlled except for one behaviour of needing to check gas outlets and powerpoints every night in case their children were hurt or damaged overnight by some unforseen accident. This continued to be a ‘sleep-draining’ issue not controllable by Zoloft, anfranil and other drugs.
They were commenced on rifaximin 500 mg capsules twice daily for the first week, then 1 g twice daily thereafter.
They remain on long term rifaximin.

[2] = tested on: Autism Spectrum Disorder (ASD); test: Treatment of twin sisters with Autism Spectrum Disorder and OCD component with oral Gentamicin, then added Rifaximin (case report); conditions: oral Gentamicin 80 mg 3 times daily in capsules; within three weeks
Procedure: Twin sisters who were diagnosed with Autism Spectrum Disorder (ASD) at different levels of reading capability, writing and comprehension in Grade 3 and 4, together with abdominal cramping and alternating hard/soft defecation changes were started on oral Gentamicin 80 mg 3 times daily in capsules. […] After three weeks Rifaximin was added to the mix of drugs at a dose of 500 mg twice daily and the patients were further observed with a combination of Gentamicin and Rifaximin.

[3] = oral Vancomycin, at four week interview

## C[C@H]1[C@H](NC(=O)/C(=N\OC(C)(C)C(=O)O)c2csc(N)n2)C(=O)N1S(=O)(=O)O [Aztreonam]
[1]
  eye contact: greater eye contact
  loose motions: reduction in the loose motions
  socialisation with the other children: greater socialisation
  word power: no increase in word power

## CN[C@H](CC(C)C)C(=O)N[C@H]1C(=O)N[C@@H](CC(N)=O)C(=O)N[C@H]2C(=O)N[C@H]3C(=O)N[C@H](C(=O)N[C@H](C(=O)O)c4cc(O)cc(O)c4-c4cc3ccc4O)[C@H](O)c3ccc(c(Cl)c3)Oc3cc2cc(c3O[C@@H]2O[C@H](CO)[C@@H](O)[C@H](O)[C@H]2O[C@H]2C[C@](C)(N)[C@H](O)[C@H](C)O2)Oc2ccc(cc2Cl)[C@H]1O [Vancomycin]
ASD; oral Vancomycin 50 mg twice daily first week increasing to 250 mg 3 times daily, initially
  abdominal discomfort initially after start of treatment: some increase in abdominal discomfort
ASD; oral Vancomycin 750 mg to 1 g, nine months of treatment
  side effects from the medication: without any undue side effects
ASD; oral Vancomycin, after four months
  communication, verbal and non-verbal: better communication between the parents and the child
ASD; [3]
  behaviour of the child: much calmer
  constipation and pain: markedly improved
  repetitive movements: came down quite markedly
ASD; oral Vancomycin, within a few days onwards
  pain: progressively disappeared
ASD; oral Vancomycin, within a few days, before: once every three to four days
  bowel function (evacuation frequency): daily or twice daily and even three times daily evacuation

## CO[C@H]1/C=C/O[C@@]2(C)Oc3c(C)c(O)c4c(O)c(c5c(nc6cc(C)ccn65)c4c3C2=O)NC(=O)/C(C)=C\C=C\[C@H](C)[C@H](O)[C@@H](C)[C@@H](O)[C@@H](C)[C@H](OC(C)=O)[C@@H]1C [rifaximin]
OCD; next 3 months of monitoring their behaviour
  persistence of the improvement during monitoring: almost universal
OCD; person, rifaximin 500 mg capsules twice daily first week, then 1 g twice daily
  OCD behaviour: need to check gas outlets and powerpoints every night: absence of the need to check the gas outlets and powerpoints
OCD; person, rifaximin 500 mg twice daily first week, then 1 g twice daily
  time until absence of the checking behaviour was noticed: ≤ 10 days

## Gentamicin
[2]
  episodes of OCD behaviour: marked reduction in the number of episodes of OCD behaviour

Reference: patent US20180071268A1, “COMPOSITIONS AND METHODS FOR TREATING MICROBIOTA-RELATED PSYCHOTROPIC CONDITIONS AND DISEASES” (priority 2013, published 2018)
